#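 These data come from cells grown in 96-well plates and exposed to compound for 48 hours at five concentrations. Here, GI50 denotes the concentration required for 50% inhibition of growth. TGI: concentration producing complete growth inhibition.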
# Columns and labels:
# Test in all cases: DTP human tumour cell line panel, 48 h
# A549 NSCLC = system: A549 NSCLC
# SNB-75 CNS = system: SNB-75 CNS
# NCI-H522 lung = system: NCI-H522 lung
# SK-MEL-2 melanoma = system: SK-MEL-2 melanoma
# CCRF-CEM leukemia = system: CCRF-CEM leukemia
# SNB-19 CNS = system: SNB-19 CNS
# IGROV1 ovarian = system: IGROV1 ovarian
# HOP-62 NSCLC = system: HOP-62 NSCLC
# T-47D breast = system: T-47D breast
# OVCAR-4 ovarian = system: OVCAR-4 ovarian
SMILES,TGI (A549 NSCLC) [µM],TGI (SNB-75 CNS) [µM],TGI (NCI-H522 lung) [µM],TGI (SK-MEL-2 melanoma) [µM],TGI (CCRF-CEM leukemia) [µM],TGI (SNB-19 CNS) [µM],TGI (IGROV1 ovarian) [µM],GI50 (HOP-62 NSCLC) [µM],TGI (HOP-62 NSCLC) [µM],GI50 (A549 NSCLC) [µM],GI50 (T-47D breast) [µM],TGI (T-47D breast) [µM],GI50 (SNB-75 CNS) [µM],GI50 (NCI-H522 lung) [µM],GI50 (SK-MEL-2 melanoma) [µM],GI50 (OVCAR-4 ovarian) [µM],TGI (OVCAR-4 ovarian) [µM],GI50 (SNB-19 CNS) [µM],GI50 (IGROV1 ovarian) [µM],GI50 (CCRF-CEM leukemia) [µM]
ClC[Si]12OCCN(CCO1)CCO2,> 100,> 100,> 100,> 100,> 100,> 100,> 100,–,–,–,–,–,–,–,–,–,–,–,–,–
COc1ccc(Cn2c(Br)c3c(c2-c2cc(OC)c(OC)c(OC)c2)CCc2sc(NC(C)=O)nc2-3)cc1,> 100,> 100,9.22,> 100,–,> 100,> 100,5.52,> 100,3.92,4.65,> 100,1.82,2.17,3.82,3.49,> 100,> 100,4.46,–
CN(C)/C=N/c1nc2ncn(CCOC(=O)c3ccccc3)c2c(=O)[nH]1,> 100,> 100,> 100,> 100,> 100,–,> 100,–,> 100,–,–,–,–,–,–,–,> 100,–,–,–
N#CC1=C(c2ccccc2)C(O)(c2ccccc2)NC1=O (stereo not drawn),> 100,> 100,–,> 100,> 100,–,> 100,–,> 100,–,–,–,–,–,–,–,> 100,–,–,–
CC(Oc1ccc2cc(C(=O)c3ccccc3)c(=O)oc2c1)C(=O)O (stereo not drawn),> 100,> 100,> 100,–,> 100,> 100,> 100,–,> 100,–,–,–,–,–,–,–,> 100,–,–,–
COc1ccc(C(=O)O)c(Cc2ccc3ccccc3c2)c1,> 100,> 100,> 100,> 100,> 100,> 100,> 100,–,> 100,–,–,–,–,–,–,–,> 100,–,–,–
COc1cc(OC)cc(-c2cncn2-c2ccc(-c3nc4cc(OC)c(OC)c(OC)c4s3)cc2)c1,> 100,42.7,> 100,> 100,–,> 100,> 100,26.4,> 100,5.59,4.74,> 100,15,11.8,6.16,6.67,> 100,19.7,9.6,–
O=C1c2ccccc2C(=O)c2c1ccc1c2OCO1,> 100,> 100,> 100,> 100,–,> 100,> 100,–,> 100,–,–,> 100,–,–,–,–,> 100,–,–,–
CC1=CC2C(C(C)C)CC1C1C(=O)OC(=O)C21 (stereo not drawn),> 100,> 100,> 100,> 100,–,> 100,> 100,–,> 100,–,–,> 100,–,–,–,–,> 100,–,–,–
O=C1C(N2C(=O)c3ccccc3C2=O)CN1C(COCc1ccccc1)c1ccc(OCc2ccccc2)cc1 (stereo not drawn),> 100,> 100,> 100,–,> 100,> 100,> 100,–,> 100,–,–,–,–,–,–,–,> 100,–,–,–
COc1ccc(-c2nocc2-c2cc(OC)c(OC)c(OC)c2)cc1,> 100,> 100,0.499,69.2,> 100,> 100,> 100,0.138,> 100,0.0907,–,–,0.0751,0.0323,0.0664,2.21,> 100,0.175,0.346,0.189
Cc1nn(-c2ccc(Br)cc2)c(C)c1CC(=O)c1cc(O)ccc1O,20.7,31.1,> 50,> 50,> 50,> 50,> 50,–,–,10.5,–,–,10.8,16,23,15.9,> 50,15,17.2,19
c1ccc(C2N3CCCCC3[C@@H]3c4[nH]c5ccccc5c4CCN23)cc1 (stereo partly drawn),> 100,> 100,–,> 100,> 100,> 100,> 100,–,> 100,–,–,–,–,–,–,–,75.6,–,–,–
COc1ccc(/C(C)=N/NC(N)=S)c(OC)c1,> 100,> 100,62.3,> 100,> 100,> 100,> 100,–,> 100,–,–,–,–,–,–,–,–,–,–,–
COc1cc(-c2cc(CCC(=O)Nc3ccccc3[N+](=O)[O-])n(-c3ccc([N+](=O)[O-])cc3[N+](=O)[O-])n2)ccc1O,> 100,> 100,> 100,> 100,> 100,> 100,> 100,> 100,> 100,> 100,–,–,> 10,> 100,> 100,> 100,> 100,> 100,> 100,> 100
Cc1cccc(NC(=O)CC#N)c1Cl,> 100,> 100,> 100,> 100,> 100,> 100,> 100,–,–,–,–,–,–,–,–,–,–,–,–,–

SMILES,TGI (A549 NSCLC) [µM],TGI (SNB-75 CNS) [µM],TGI (NCI-H522 lung) [µM],TGI (SK-MEL-2 melanoma) [µM],TGI (CCRF-CEM leukemia) [µM],TGI (SNB-19 CNS) [µM],TGI (IGROV1 ovarian) [µM],GI50 (HOP-62 NSCLC) [µM],TGI (HOP-62 NSCLC) [µM],GI50 (A549 NSCLC) [µM],GI50 (T-47D breast) [µM],TGI (T-47D breast) [µM],GI50 (SNB-75 CNS) [µM],GI50 (NCI-H522 lung) [µM],GI50 (SK-MEL-2 melanoma) [µM],GI50 (OVCAR-4 ovarian) [µM],TGI (OVCAR-4 ovarian) [µM],GI50 (SNB-19 CNS) [µM],GI50 (IGROV1 ovarian) [µM],GI50 (CCRF-CEM leukemia) [µM]
CC1(C)OC(=O)C(=C2CC(c3ccccc3)c3ccccc32)C(=O)O1 (stereo not drawn),> 100,> 100,> 100,–,> 100,> 100,> 100,–,> 100,–,–,–,–,–,–,–,> 100,–,–,–
BrC12c3ccccc3Sc3ccccc3C1(Br)c1ccccc12 (stereo not drawn),> 100,95.8,44.6,34.5,50.1,> 100,> 100,–,42.9,–,–,–,–,–,–,–,> 100,–,–,–
CC1=C(C(=O)Nc2ccccc2C)C(c2ccc(C3C(C(=O)Nc4ccccc4C)=CNC=C3C(=O)Nc3ccccc3C)cc2)C(C(=O)Nc2ccccc2C)=C(C)N1,> 100,54.8,18.9,31.6,> 29,49.1,37.1,–,48.7,–,–,–,–,–,–,–,22,–,–,–
CC(=O)OCC1OC(Sc2ccccn2)C=CC1OC(C)=O (stereo not drawn),> 100,> 100,> 100,–,> 100,> 100,> 100,–,> 100,–,–,–,–,–,–,–,> 100,–,–,–
Oc1cc2c(cc1O)-c1[nH]ncc1CC2,> 100,70.5,25.5,> 100,47.7,> 100,> 100,–,> 100,–,–,–,–,–,–,–,–,–,–,–
CC(C)CC(=O)NS(=O)(=O)c1ccccc1,> 100,> 100,> 100,> 100,> 100,> 100,> 100,–,> 100,–,–,–,–,–,–,–,> 100,–,–,–
CC1=C(c2cc(C(=O)Nc3nccs3)nc(NC#N)n2)Sc2ccccc2N1,> 100,> 100,> 100,> 100,> 100,> 100,> 100,–,> 100,–,–,–,–,–,–,–,> 100,–,–,–
O=CC1(C2(C=O)c3ccccc3-c3ccccc32)c2ccccc2-c2ccccc21,–,8.08,4.38,4.82,11.6,–,0.924,6.17,10.4,–,–,–,3.29,2.01,2,2.02,5.26,–,0.323,3.77
CN(C)/C(N)=N/C(N)=S,> 100,> 100,> 100,–,–,> 100,> 100,–,> 100,–,–,–,–,–,–,–,> 100,–,–,–
C=C(CN1CCN(c2cccc(F)c2)CC1)c1ccc(C(=O)Nc2ccccc2N)cc1,16.3,6.24,3.88,> 100,–,> 100,3.9,0.83,17.5,3.24,4.38,> 100,0.492,0.848,4.89,3.35,33.9,1.95,0.333,–
O=C(c1ccc2c3c(ccc(C(=O)C(F)(F)F)c13)CC2)C(F)(F)F,> 100,> 100,98.9,> 100,–,> 100,> 100,–,> 100,–,–,–,–,–,–,–,> 100,–,–,–
CC(O[Si](C)(C)C)C1C=CC(C)n2c(=O)n(-c3ccccc3)c(=O)n21 (stereo not drawn),> 100,–,–,> 100,–,> 100,> 100,–,> 100,–,–,–,–,–,–,–,> 100,–,–,–
CCC(/C(=N\Nc1c(Cl)cc(Cl)cc1Cl)c1ccccc1)n1ccnc1C (stereo not drawn),38.1,29.5,18.1,28.1,> 100,28.5,28.8,–,–,–,–,–,–,–,–,–,30,–,–,–
O=C(O)C1OC(Oc2cc(O)c3c(=O)cc(-c4ccc(O)cc4)oc3c2)C(O)C(O)C1O (stereo not drawn),> 100,> 100,> 100,> 100,–,> 100,–,–,> 100,–,–,–,–,–,–,–,> 100,–,–,–
CCC/C(=N\NC(=O)c1cc2ccccc2cc1O)C(CC)C(=O)CCC(=O)N(Cc1ccccc1)Cc1ccccc1 (stereo not drawn),> 100,> 100,> 100,77.8,41.7,> 100,> 100,–,> 100,–,–,–,–,–,–,–,> 100,–,–,–
